Here are results for 3 compounds from paper PMC10284923 (The ISME Journal, 2023).

Like-named read-outs stand apart in the source and are kept apart here.

The subject of one experiment is Prochlorococcus MED4. Particulars: cited from earlier work.
The next experiment deals with Prochlorococcus MIT9313. Particulars: cited from earlier work.
In another experiment the test system is Synechococcus WH8102. It is filed as cell-based. As for the experimental part:
(§1) For treatment conditions containing alternative P compounds, 50 µM NaH2PO4 was replaced with 50 µM phosphite (Na2HPO3·5H2O) or methylphosphonate. In P-deplete media, an equal volume of water was added instead of a P compound. Experimental cultures were started from mid-logarithmic cultures grown in phosphate-containing PCR-S11 media. A small inoculum (~100 µL) was used to minimise the transfer of phosphate from stock cultures. Four biological replicates were tested for each experimental condition. Growth was regularly monitored via cell counts using a CytoFLEX S flow cytometer. […] Phosphate concentration in all treatment conditions was monitored regularly for the duration of the experiments using a Phosphate Colorimetric kit following the manufacturer’s instructions (Sigma-Aldrich) with a detection limit of 0.5 µM.

The next experiment concerns Synechococcus MITS9220. It counts as cell-based. On the procedure: as §1
In another experiment the test system is Prochlorococcus MIT9301. Particulars: cited from earlier work.
The target in a further experiment is CC9311_PhnD1. It counts as binding, Synechococcus sp. CC9311. Particulars: read-out: Dissociation constant (KD).
For another experiment, the target named is Pm_PtxB. Particulars: read-out: Dissociation constant (KD); cited from earlier work.
In another experiment the target is WH8102_PhnD1 (Parasynechococcus marenigrum, UniProt Q7U716). It counts as binding, Synechococcus sp. WH8102. Particulars: read-out: Dissociation constant (KD).
Experiment [1] has as its target Ec_PhnD. Particulars: ITC, dash = binding not detected, read-out: Dissociation constant (KD); cited from earlier work. Background: ITC needs no label: the signal is the heat of the interaction.
The target in experiment [2] is Ec_PhnD. Particulars: intrinsic fluorescence, read-out: Dissociation constant (KD); cited from earlier work.

Sequence of WH8102_PhnD1 (Q7U716 27-306 limits assumed): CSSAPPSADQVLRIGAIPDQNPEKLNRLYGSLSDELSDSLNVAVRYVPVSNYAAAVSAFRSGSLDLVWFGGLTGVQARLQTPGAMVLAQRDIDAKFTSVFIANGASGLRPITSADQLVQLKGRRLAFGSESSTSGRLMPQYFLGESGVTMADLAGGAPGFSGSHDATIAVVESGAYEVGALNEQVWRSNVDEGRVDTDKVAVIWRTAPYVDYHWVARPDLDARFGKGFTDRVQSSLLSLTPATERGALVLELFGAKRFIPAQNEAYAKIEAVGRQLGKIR

Take `O=P(O)(O)O` [Pi, inorganic phosphate]: the “Growth and utilisation of P source” value in the experiment with Prochlorococcus MED4 and in the experiment on Prochlorococcus MIT9313 was “only able to utilise Pi for their growth” each time. Further, the “Growth as sole P source” value is on record as “growth seen” in the experiment on Synechococcus WH8102 (50 µM P source, PCR-S11 medium, cell density by flow cytometry, 49 days) and “growth seen” in the experiment on Synechococcus MITS9220 (50 µM P source, PCR-S11 medium, cell density by flow cytometry).

As for phosphite [Pt], the “Use as sole P source to support growth” value in the experiment on Prochlorococcus MIT9301 is “can use Pt or MPn as the sole P source to support its growth”. Besides, the figures for the equilibrium dissociation constant (Kd) on CC9311_PhnD1, on Pm_PtxB and at WH8102_PhnD1 were 1700 ± 900 nM, 2000 nM and 4300 ± 500 nM, respectively. Moreover, the “Growth and utilisation of P source” value in the experiment with Prochlorococcus MED4 was “unable to grow and utilise”; in the experiment on Prochlorococcus MIT9313 it was “unable to grow and utilise”. The “Growth as sole P source” value in the experiment with Synechococcus WH8102 and in the experiment on Synechococcus MITS9220 was “do not exhibit a clearly defined exponential growth” in each case.

On to `NCCP(=O)(O)O` [2-AEP, 2-aminoethylphosphonate], for which the Kd (in general, a measure of binding affinity in units of concentration) on Ec_PhnD [1] was 100 nM; at Ec_PhnD [2], under 50 nM.
